The conditions of data set [1]: cited from earlier work.
The next data set relates to male Wistar rats. Conditions: pretreated 30 minutes prior to CDDP infusion.

Experimental for male Wistar rats: Complete data sets are obtained for five groups of five male Wistar rats (280-421 g). All animals are anesthetized with 1 ml/mg IM of Rompun cocktail (a solution containing 86.21 mg/ml ketamine and 2.76 mg/ml xylazine) prior to all injections and testing. Anesthesia is supplemented as needed with half doses throughout testing. The five groups include: a treated control group which received a dose of CDDP dissolved in normal sterile saline (1 mg of CDDP/ml normal saline; solution pH 6.3) administered by i.p. infusion with a Harvard Apparatus Infusion Pump, over a 30 minute period, an untreated control group that received an equivalent volume of normal saline (pH 6.5) instead of CDDP, and three experimental groups that receive various doses of protectant combination (comprising two or more of methionine protectant agents, carnitine, N-acetylcysteine, magnesium ions, lipoic acid, ebselen, glutathione, and glutathione ester) within the ranges described below dissolved in 3-5 ml of normal saline (solution pH 6.6) delivered by slow (over 1-2 minutes) i.p. injection 30 minutes prior to the same CDDP infusion as the treated control group. Both CDDP (purchased from Sigma Chemical Co., St. Louis) and the protectant combinations are freshly prepared before each experiment.

Take `CSCC[C@@H](N)C(=O)O` [D-methionine]: the “excreted without conversion to the L-isomer” value in data set [1] (humans, except in L-methionine deprivation) is on record as 60-70%. The “plasma levels compared with L-methionine” value in data set [1] (in the human) is on record as “higher plasma levels than L-methionine”. In the data set on male Wistar rats, the “survival until the end of the study period” value is given as “all of the animals in each of these groups are expected to survive”.

The record behind these values is patent publication US20070105782A1, “Protectant Combinations for Reducing Toxicities” (BOARD OF TRUSTEES OF SOUTHERN ILLINOIS UNIVERSITY, priority 2005, published 2007).
